# Test results published in US20110038948A1, “Methods of Reducing the Production of Reactive Oxygen Species and Methods of Screening or Identifying Compounds and Compositions that Reduce the Production of Reactive Oxygen Species” (UNIVERSITY OF TENNESSEE RESEARCH FOUNDATION, priority 2005, published 2011).
# Columns and labels:
# NADPH oxidase = NADPH oxidase expression in cultured adipocytes; assay type: cell-based, mouse; conditions: glucose 30 mmol/L alone or plus compound, 48 hours
# Protocol: (§1) 3T3-L1 preadipocytes were incubated at a density of 8000 cells/cm^2 (10 cm^2 dish) and grown in Dulbecco's modified Eagle's medium (DMEM) containing 10% FBS and antibiotics (adipocyte medium) at 37° C. in 5% CO2 in air. Confluent preadipocytes were induced to differentiate with a standard differentiation medium consisting of DMEM-F10 (1:1, vol/vol) medium supplemented with 1% FBS, 1 μM dexamethasone, IBMX (0.5 mM) and antibiotics (1% Penicillin-Streptomycin). Preadipocytes were maintained in this differentiation medium for 3 days and subsequently cultured in adipocyte medium. Cultures were re-fed every 2-3 days to allow 90% of cells to reach full differentiation before conducting chemical treatment. Chemicals were freshly diluted in adipocyte medium before treatment. Cells were washed with fresh adipocyte medium, re-fed with medium containing the different treatments, and incubated at 37° C. in 5% CO2 in air before analysis. Cell viability was measured via trypan blue exclusion. Adipocyte 18s, cyclin A, NADPH oxidase, and UCP2 were quantitatively measured using a Smart Cycler Real Time PCR System (Cepheid, Sunnyvale, Calif.) with a TaqMan 1000 Core Reagent Kit (Applied Biosystems, Branchburg, N.J.). The primers and probe sets were ordered from Applied Biosystems TaqMan® Assays-on-Demand™ Gene Expression primers and probe set collection according to manufacture's instruction. Pooled adipocyte total RNA was serial-diluted in the range of 1.5625-25 ng and used to establish a standard curve; total RNAs for unknown samples were also diluted in this range. Reactions of quantitative RT-PCR for standards and unknown samples were also performed according to the instructions of Smart Cycler System (Cepheid, Sunnyvale, Calif.) and TaqMan Real Time PCR Core Kit (Applied Biosystems, Branchburg, N.J.). The mRNA quantitation for each sample was further normalized using the corresponding 18s quantitation.
# TNFα = TNFα expression in RAW 264 macrophages; assay type: cell-based
# Protocol: RAW 264 macrophages and 3T3-L1 preadipocytes (American Type Culture Collection) were incubated at a density of 8000 cells/cm2 (10 cm2 dish) and grown in Dulbecco's modified Eagle's medium (DMEM) containing 10% FBS and antibiotics (adipocyte medium) at 37° C. in 5% CO2 in air. Confluent 3T3-L1 preadipocytes were induced to differentiate with a standard differentiation medium consisting of DMEM-F10 (1:1, vol/vol) medium supplemented with 1% FBS, 1 μM dexamethasone, IBMX (0.5 mM) and antibiotics (1% Penicillin-Streptomycin). Preadipocytes were maintained in this differentiation medium for 3 days and subsequently cultured in adipocyte medium. Cultures were re-fed every 2-3 days to allow 90% cells to reach fully differentiation for 3T3-L1 adipocytes or grow to a confluence for RAW 264 before conducting chemical treatment.
# Cells were washed with fresh adipocyte medium, re-fed with medium containing the indicated treatments, and incubated at 37° C. in 5% CO2 for 48 hours before analysis. Cell viability was measured via trypan blue exclusion.
# Human adipocytes (Zen-Bio, Inc.), 3T3-L1 adipocytes, RAW264 macrophages were obtained and co-cultured by using transwell inserts with 0.4 μm porous membranes (Corning) to separate adipocytes and macrophages. All data are expressed as mean±SEM. Data were evaluated for statistical significance by analysis of one-way or two-way variance (ANOVA; means with different letter differ, p<0.05).
# Adipocyte and muscle 18s, CD14, TNFα, MIP, M-CSF, IL-6 and MCP-1 were quantitatively measured using a Smart Cycler Real Time PCR System (Cepheid, Sunnyvale, Calif.) with a TaqMan 1000 Core Reagent Kit (Applied Biosystems, Branchburg, N.J.). […] Reactions of quantitative RT-PCR for standards and unknown samples were also performed according to the instructions of Smart Cycler System (Cepheid, Sunnyvale, Calif.) and TaqMan Real Time PCR Core Kit (Applied Biosystems, Branchburg, N.J.). The mRNA quantitation for each sample was further normalized using the corresponding 18s quantitation.
# C2C12 myotubes = assay: Fatty acid oxidation (palmitate oxidation) in muscle cells; assay type: cell-based, murine; conditions: calcitriol 10 nM, 48 hours; p<0.05
# Protocol: FIG. 53: Fatty acid oxidation was determined via palmitate oxidation. […] Data are corrected for DNA content. Values are presented as mean±SEM, n=6. Means with different letter differ with p<0.05.
# The adipose tissue-skeletal muscle endocrine axis may play a potential role in regulating metabolic energy partitioning. […] While both calcium and dairy accelerate adipose tissue loss, dairy exerts a substantially greater effect and exerts a protective effect on lean tissue during hypocaloric diets. We have shown that dietary calcium modulation of adiposity is mediated, in part, by suppression of calcitriol, while the additional effect of dairy is mediated by additional bioactive components; these include the high concentration of leucine, a key factor in the regulation of muscle protein turnover. […] However, the effect of leucine and calcium, in regulating this process is unclear. Accordingly, present study was designed to investigate the effect of leucine, calcitriol and calcium on energy metabolism in murine adipocytes and muscle cells. Leucine induced a 41% increase in fatty acid oxidation in C2C12 muscle cells (p<0.001) and decreased fatty acid synthase gene expression by 66% (p<0.001) in 3T3-L1 adipocytes. Calcitriol decreased muscle cell fatty acid oxidation by 17% (p<0.05) and increased adipocyte FAS gene expression by 3-fold (p<0.05).
# cyclin A = assay: Cyclin A expression in cultured adipocytes; assay type: cell-based, mouse; conditions: compound plus glucose 30 mmol/L, 48 hours
# Protocol: as §1, with “Cells were washed with fresh adipocyte medium, re-fed with medium containing the different treatments, and incubated at 37° C. in 5% CO2 in air before analysis.” left out, “The primers and probe sets were ordered from Applied Biosystems TaqMan® Assays-on-Demand™ Gene Expression primers and probe set collection according to manufacture's instruction. Pooled adipocyte total RNA was serial-diluted in the range of 1.5625-25 ng and used to establish a standard curve; total RNAs for unknown samples were also diluted in this range.” left out
smiles,measurement,setting,value
"C=C1/C(=C\C=C2/CCC[C@]3(C)[C@@H]([C@H](C)CCCC(C)(C)O)CC[C@@H]23)C[C@@H](O)C[C@@H]1O [calcitriol, 1,25-(OH)2-D3]",effect on NADPH oxidase expression,NADPH oxidase,stimulated
same,stimulation of TNFα expression,TNFα; RAW 264 macrophages cultured alone,91%
same,effect on TNFα expression in macrophages,TNFα; co-culture with differentiated 3T3-L1 adipocytes,further enhanced
same,decrease in muscle cell fatty acid oxidation,C2C12 myotubes,17%
same,effect on glucose stimulated cyclin A expression,cyclin A,augmented
